Measured values reported in patent US20120035187A1 (priority 2009, published 2012).

How the values were obtained:
[1] = test system: ICR mice administered with amyloid β fragment; assay: Degeneration or defect of hippocampal pyramidal cells, mouse administered with amyloid β fragment, agents of Example 1; format: in vivo; conditions: 4-point grade score none (0) to severe (3), average of 10 mice; agent of Example 1, 0.3 ml/head intraperitoneally once a day up to the 8th day
Experimental: One hundred and thirty ICR mice (commercialized by Charles Liver Laboratories Japan Inc., Kanagawa, Japan) were randomly divided into 13 groups, consisting of 10 mice in each group. Amyloid β fragment, represented by an amino acid sequence of SEQ ID NO: 1, used in Experiment 3 was aged at 37° C. for four days, and administered to the lateral ventricle of each mouse in an amount of 9 nmol/6 μl/mouse (the administration method is referred to “Brain Research”, Vol. 706, pp. 181-193 (1996)). […] The mice (10 heads) in the remaining one group were intraperitoneally administered with a sterilized 10% maltose solution (pyrogen-free) once a day up to the 8th day in an amount of 0.3 ml/mouse (control). On the 8th day after the administration, novel object recognition test (see, Japanese Patent Kokai No. 2008-193941) was performed and the average discrimination index (the ratio of prolonged seeking time for novel object to the total seeking time) as a cognitive function index were shown in Table 26. On the 9th day after the administration, the brain of the mice was anatomically isolated, prepared into tissue samples in conventional manner. Depositions of aggregation of amyloid fragment were observed by staining with Congo red or thioflavin T, and degeneration or defect of hippocampal pyramidal cells concerned with cognitive function. The degeneration or the defect of hippocampal pyramidal cells was evaluated by 4-point grade score, by regarding the condition of the control without administration of amyloid β fragment as “none (O)”, “slight (1)”, “moderate (2)”, and “sever (3)”, and the average scores of 10 mice are shown in Table 20.

[2] = test system: hamsters with cerebellar ataxia; assay: Slant tolerance test in hamsters with cerebellar ataxia; format: in vivo, hamster; conditions: for endurable-slant-slope-angle (degree): cerebellar ataxia hamsters; for Endurable-slant-slope-angle (°): hamster with cerebellar ataxia, agent of Example 1, 0.5 ml/hamster intraperitoneally once a day for 56 days
From the text: (§1) Since NK-4 was confirmed to have a neurodegenerative inhibitory action in Experiment 1, hamsters with cerebellar ataxia (cerebellar ataxia is called “cerebellar A” and hamsters with cerebellar ataxia are called “hamsters with cerebellar A”, hereinafter) as a suitable model for human neurodegenerative diseases (e.g., spinal cerebellar degeneration) were subjected to examine the influence of NK-4 administration on their behaviors and brain tissues. Twenty-five hamsters with natural mutation (Nna1 inhibition), which are known to lose Purkinje's cells after three-weeks of age and then induce a spontaneous onset of kinetic motor ataxia after seven-weeks of age (see Akita K. et al., “J. Neurogenetics”, Vol. 21, pp. 19-29, 2007), had been fed at Hayashibara Biochemical Laboratories., Inc., Okayama, Japan, were randomly allocated to the test groups 1 to 5, five heads in each group, as shown in Table 2. Prior to the onset of cerebellar A (at three-weeks of age), PBS was started to administer to the hamsters in the test group 1 at a dose of 10 ml/kg/day. Prior to the onset of cerebellar A (at three-weeks of age), NK-4 was started to be administered to the hamsters in the test groups 2 to 4 at a daily dose of 20 μg/kg, 100 μg/kg or 500 μg/kg. “IGF-1, human, a product name of insulin-like growth factor, commercialized by Assaypro LLC, MO, USA. These administered ingredients were intraperitoneally administered daily to hamsters once a day up to 10-weeks of age. The degree of symptom of cerebellar A and the improvement effect on the symptom by NK-4 were evaluated with an index of improvement in motor coordination of hamsters by conducting once a week the later described rotarod test and the slant tolerance test. At the age of 10-weeks, the hamsters were subjected to counting the falling down frequency and extracted their brains, which were then histologically evaluated. In parallel, the concentration of glutamic acid in the bloods and cerebrospinal fluids (CSF) of the hamsters was assayed. As a test group 6, five normal hamsters, with the same age as the hamsters with cerebellar A used in the test groups 1 to 5, were provided and tested similarly as the hamsters with cerebellar A in such a manner of intraperitoneally administering PBS to them at a dose of 10 ml/kg/day once a day up to 10-weeks of age.
Hamsters were placed on a slope-angle-variable-board while keeping their heads upward, followed by determining the angle for allowing the hamsters to keep staying thereupon for five seconds for use as an endurable-slant-slope-angle test (see Rivlin et al., “J. Neurosurg.”, Vol. 47, pp. 577-581, […]). The initial slope angle was set to 25 degrees and increased by 5 degrees step by step. When a tested hamster in a static condition fell down within five seconds, the slope angle was decreased by one degree step by step, followed by judging the angle that allows the hamster to keep static staying for five seconds, measuring the tolerable slant-slope-angle, and averaging the data for five heads in each group.
(§2) Similarly as in Experiment 2, 130 hamsters with cerebellar ataxia, born within the same week and 3-weeks of age, were randomly divided into 13 groups, consisting of 10 hamsters, respectively. […] The hamsters (10 heads) in the remaining one group were intraperitoneally administered from their age of 3- to 10-weeks with a sterilized 10% maltose solution (pyrogen-free) in an amount of 0.5 ml/hamster (control) once a day for 56 days At the next day after the end of the administration, body weight of each hamster was weighed, followed by performing rotarod test, slope endurance test, and counting of falling down frequency. The types of compounds applied to each group and the results are in Table 25.

[3] = test system: hamsters with cerebellar ataxia; assay: Falling down frequency of hamsters with cerebellar ataxia; format: in vivo, hamster; conditions: for Falling down frequency (frequency/min): cerebellar ataxia hamsters, 10-weeks of age; for Falling down frequency (count/min): hamster with cerebellar ataxia, agent of Example 1, 0.5 ml/hamster intraperitoneally once a day for 56 days
From the text: as §1
Hamsters, 10-weeks of age, were respectively housed in a breeding cage. Their falling down frequencies within one minute were counted under a macroscopic observation and the data from five heads in each group were averaged. For reference, the hamsters with cerebellar A used in this experiment are known to increase their falling down frequencies after nine weeks of age.
as §2

PC12-HS cells = assay: Evaluation A: neurocyte (cell)-growth-promoting action, ALAMAR BLUE; format: cell-based, rat; conditions: for Cell survival percentage (%): cell-growth promotion; for optimum concentration for exhibiting cell-growth-promoting action: from Table 9
Experimental: Then, the effects of test samples were judged as follows:
The relative value of 140 to 199: Equivalent effect to that of NK-4, symbol (∘); The relative value of 200 or higher: Stronger effect than that of NK-4, symbol ([…]). • The results are in Table 6.
The relative fluorescent intensity of each well was determined by using the fluorescent intensity of each well with cells, which had been cultured by admixing with D-MEM medium containing 10% by volume of FBS without any of the compounds, and the intensity of the resulting culture was regarded as 100%. The results are expressed as cell survival percentages (%) in Table 9. […]
The test was conducted twice for each test sample in a triplicate manner and the data were averaged.
Seven compounds as in Table 17, NK-234, NK-26, NK-9815, NK-9694, NK-28 and NK-147 as well as NK-4, were each dissolved in DMSO to give a concentration of 5 mg/ml. […] The test was conducted twice for each test sample in a triplicate manner and the data were averaged.

[4] = no compound = 100%, final concentration 12.5 ng/ml
[5] = compound concentration 25 ng/ml

CCN1C=CC(=CC=C(C=Cc2cc[n+](CC)c3ccccc23)c2cc[n+](CC)c3ccccc23)c2ccccc21.[I-].[I-] [NK-4]
Degeneration/defluxion of hippocampal pyramidal cell [1]: 1.1
endurable-slant-slope-angle (degree) ([2]; 20 μg/kg body weight i.p. once a day, 4-Weeks): 42.6 ± 0.5 degree
endurable-slant-slope-angle (degree) ([2]; 20 μg/kg body weight i.p. once a day, 5-Weeks): 47.2 ± 0.4 degree
endurable-slant-slope-angle (degree) ([2]; 20 μg/kg body weight i.p. once a day, 6-Weeks): 44.6 ± 0.5 degree
endurable-slant-slope-angle (degree) ([2]; 20 μg/kg body weight i.p. once a day, 7-Weeks): 47.0 ± 0.3 degree
endurable-slant-slope-angle (degree) ([2]; 20 μg/kg body weight i.p. once a day, 8-Weeks): 42.8 ± 0.5 degree
endurable-slant-slope-angle (degree) ([2]; 20 μg/kg body weight i.p. once a day, 9-Weeks): 44.4 ± 0.5 degree
endurable-slant-slope-angle (degree) ([2]; 20 μg/kg body weight i.p. once a day, 10-Weeks): 45.8 ± 0.6 degree
endurable-slant-slope-angle (degree) ([2]; 100 μg/kg body weight i.p. once a day, 4-Weeks): 41.6 ± 0.4 degree
endurable-slant-slope-angle (degree) ([2]; 100 μg/kg body weight i.p. once a day, 5-Weeks): 45.6 ± 0.2 degree
endurable-slant-slope-angle (degree) ([2]; 100 μg/kg body weight i.p. once a day, 6-Weeks): 44.4 ± 0.3 degree
endurable-slant-slope-angle (degree) ([2]; 100 μg/kg body weight i.p. once a day, 7-Weeks): 46.2 ± 0.4 degree
endurable-slant-slope-angle (degree) ([2]; 100 μg/kg body weight i.p. once a day, 8-Weeks): 47.6 ± 0.4 degree
endurable-slant-slope-angle (degree) ([2]; 100 μg/kg body weight i.p. once a day, 9-Weeks): 46.8 ± 0.3 degree
endurable-slant-slope-angle (degree) ([2]; 100 μg/kg body weight i.p. once a day, 10-Weeks): 51.6 ± 0.6 degree
endurable-slant-slope-angle (degree) ([2]; 500 μg/kg body weight i.p. once a day, 4-Weeks): 43.8 ± 0.4 degree
endurable-slant-slope-angle (degree) ([2]; 500 μg/kg body weight i.p. once a day, 5-Weeks): 46.4 ± 0.2 degree
endurable-slant-slope-angle (degree) ([2]; 500 μg/kg body weight i.p. once a day, 6-Weeks): 44.0 ± 0.6 degree
endurable-slant-slope-angle (degree) ([2]; 500 μg/kg body weight i.p. once a day, 7-Weeks): 44.6 ± 0.5 degree
endurable-slant-slope-angle (degree) ([2]; 500 μg/kg body weight i.p. once a day, 8-Weeks): 48.0 ± 0.5 degree
endurable-slant-slope-angle (degree) ([2]; 500 μg/kg body weight i.p. once a day, 9-Weeks): 47.5 ± 0.4 degree
endurable-slant-slope-angle (degree) ([2]; 500 μg/kg body weight i.p. once a day, 10-Weeks): 51.8 ± 0.4 degree
Endurable-slant-slope-angle (°) [2]: 55.8 ± 2.5 °
Falling down frequency (frequency/min) ([3]; 20 μg/kg body weight i.p. once a day): 4.0 ± 1.0 frequency/min
Falling down frequency (frequency/min) ([3]; 100 μg/kg body weight i.p. once a day): 1.6 ± 0.9 frequency/min
Falling down frequency (frequency/min) ([3]; 500 μg/kg body weight i.p. once a day): 1.2 ± 0.8 frequency/min
Falling down frequency (count/min) [3]: 1.1 ± 0.8 count/min
Cell survival percentage (%) (PC12-HS cells; final concentration 50 ng/ml): 154 ± 8%
Cell survival percentage (%) (PC12-HS cells; final concentration 200 ng/ml): 309 ± 68%
Cell survival percentage (%) (PC12-HS cells; final concentration 800 ng/ml): 254 ± 54%
Cell survival percentage (%) (PC12-HS cells; [4]): 134 ± 8%
Action of enhancing cell growth (%) (PC12-HS cells; [5]): 149 ± 20%
Action of enhancing cell growth (%) (PC12-HS cells; compound concentration 50 ng/ml): 181 ± 79%
Action of enhancing cell growth (%) (PC12-HS cells; compound concentration 100 ng/ml): 301 ± 65%
Action of enhancing cell growth (%) (PC12-HS cells; compound concentration 200 ng/ml): 438 ± 48%
optimum concentration for exhibiting cell-growth-promoting action (PC12-HS cells): 200 ng/mL

CC[n+]1ccccc1/C=C/c1ccc(N(C)C)cc1 [NK-557]
Degeneration/defluxion of hippocampal pyramidal cell [1]: 2.1
Endurable-slant-slope-angle (°) [2]: 45.1 ± 3.7 °
Falling down frequency (count/min) [3]: 6.5 ± 1.1 count/min
Cell survival percentage (%) (PC12-HS cells; final concentration 50 ng/ml): 110 ± 6%
Cell survival percentage (%) (PC12-HS cells; final concentration 200 ng/ml): 241 ± 48%
Cell survival percentage (%) (PC12-HS cells; final concentration 800 ng/ml): 184 ± 42%
Cell survival percentage (%) (PC12-HS cells; [4]): 97 ± 25%
optimum concentration for exhibiting cell-growth-promoting action (PC12-HS cells): 200 ng/mL

CCCCCCCCCN1C(C)=CS\C1=C/C=C(\C=C\c1scc(C)[n+]1CCCCCCCCC)c1scc(C)[n+]1CCCCCCCCC.[I-].[I-] [NK-393]
Degeneration/defluxion of hippocampal pyramidal cell [1]: 1.1
Endurable-slant-slope-angle (°) [2]: 53.1 ± 1.5 °
Falling down frequency (count/min) [3]: 0.9 ± 0.8 count/min
Action of enhancing cell growth (%) (PC12-HS cells; 100 μl/well of 100 ng/ml test solution, 3 days, control = 100): 550%

CCCN1C=CC(=CC=C(C=Cc2cc[n+](CCC)c3ccccc23)c2cc[n+](CCC)c3ccccc23)c2ccccc21.[I-].[I-] [NK-234]
Action of enhancing cell growth (%) (PC12-HS cells; [5]): 168 ± 45%

CCN1/C(=C/C=C(/C=C/c2sc3ccccc3[n+]2CC)c2sc3ccccc3[n+]2CC)Sc2ccccc21.[I-].[I-] [NK-100]
Degeneration/defluxion of hippocampal pyramidal cell [1]: 0.9
Endurable-slant-slope-angle (°) [2]: 50.3 ± 1.9 °
Falling down frequency (count/min) [3]: 1.3 ± 0.7 count/min
Cell survival percentage (%) (PC12-HS cells; final concentration 50 ng/ml): 288 ± 19%
Cell survival percentage (%) (PC12-HS cells; final concentration 200 ng/ml): 202 ± 4%
Cell survival percentage (%) (PC12-HS cells; final concentration 800 ng/ml): 82 ± 15%
Cell survival percentage (%) (PC12-HS cells; [4]): 154 ± 156%
optimum concentration for exhibiting cell-growth-promoting action (PC12-HS cells): 50 ng/mL

CN(C)c1ccc(/C=C/c2oc3ccccc3[n+]2C)cc1 [NK-528]
Degeneration/defluxion of hippocampal pyramidal cell [1]: 2.2
Endurable-slant-slope-angle (°) [2]: 43.9 ± 3.0 °
Falling down frequency (count/min) [3]: 5.2 ± 1.4 count/min

COc1ccc2oc(/C=C/c3ccc(N(C)C)cc3)[n+](C)c2c1 [NK-1516]
Degeneration/defluxion of hippocampal pyramidal cell [1]: 1.9
Endurable-slant-slope-angle (°) [2]: 46.5 ± 2.9 °
Falling down frequency (count/min) [3]: 7.1 ± 0.8 count/min
